Data published in patent US20230374007A1, “COMPOUNDS AND THEIR USE IN TREATING CANCER” (AstraZeneca AB, priority 2020, published 2023).

Target: T1, cereblon (CRBN)—DNA damage protein 1 (DDB1) complex (Homo sapiens, UniProt Q96SW2)
T1 construct: encoding amino acid residues 1 to 442 (Uniprot Q96SW2); hexahistidine (N); thrombin cleavage site (N); made in house; host or cells: Sf9 insect cells (baculovirus co-infection)
Assay: Cereblon HTRF binding assay
Source text: The synthesized sequence was designed to encode an N-terminal hexahistidine tag, a thrombin cleavage site, an AviTag™ and a tobacco etch virus protease (TEV) cleavage site followed by the CBRN sequence. The resulting protein sequence is listed below.
The synthesized sequence was designed to encode an N-terminal hexahistidine tag, a tobacco etch virus protease (TEV) cleavage site followed by the DDB1 sequence. […] The linker amino acid residues are underlined and shown in italics.
Baculovirus production of CBRN and DDB1: Recombinant bacmid and P2 virus of CBRN and DDB1 was generated according to the Bac-to-Bac Baculovirus Expression System manual (ThermoFisher Scientific).
Protein Purification: Protein purification was initiated by thawing cells (resuspended in Lysis buffer) at r.t. Once thawed, NaCl was added to a final concentration of 200 mM, followed by 0.01 μL/mL Benzonase™ and the lysate was incubated with slow stirring for 20 minutes. After the freeze-thaw lysis, the whole cell lysate was centrifuged at 48 000 g for 45 minutes and all following purification steps were done on ice or in cold-room. Supernatant (cell lysate) was mixed with 1 mL/50 mL lysate Ni Sepharose™ 6 Fast Flow (Cytiva) pre-equilibrated with Wash buffer (50 mM Tris-Cl pH 8, 20 mM Imidazole, 500 mM NaCl, 10% Glycerol, 1 mM TCEP) and incubated with slow stirring for 1 h. The mix was loaded in a 70 mL open gravity flow column, washed with 10 bed volumes of Wash buffer, and stepwise eluted with 300 mM imidazole in Wash buffer. […] After biotinylation, the CBRN/DDB1 complex was purified by Size Exclusion Chromatography on a HiLoad™ 26/60 Superdex™ 200 column equilibrated in SEC buffer (50 mM HEPES pH 7.5, 200 mM NaCl, 5% glycerol, 1 mM TCEP) before flash-freezing in liquid nitrogen and storage at −80° C.
The assay mixture in a total volume of 4 μL consists of 50 mM Tris-HCl at pH 7.5, 100 mM NaCl, 0.01% Pluronic F127, 1 mM TCEP, 500 μM EDTA, 0.2 nM CRBN-DDB1, 0.2 nM terbium cryptate labeled streptavidin, and 2 nM Cyanine 5-labeled lenalidomide as the probe. […] Reagents were dispensed into the 384-well assay microplate using a Certus Flex liquid dispenser. After incubation for 2 h at r.t., the assay plates were read on a PHERAstar FSX plate reader (BMG Labtech) in the HTRF mode. The raw data from PHERAstar was directly imported into Genedata Screener for analysis. […] The ratio was normalized to positive and negative controls on the same plates to calculate percent inhibition: I %=(I−NC)/(PC−NC), where I are readings from the compound treated well, NC and PC are average readings from negative control wells and positive control wells, respectively. IC50 values were obtained by fitting the I % vs. compound concentration [I] to I %=S0+(SInf−S0)/(1+((IC50/[I])^n)), where S0 is the fitted activity level at zero concentration of test compound, SInf is the fitted activity level at […] concentration of test compound, and n is the hill coefficient of the curve.
The IC50 values reported below are the calculated mean result of one or more experiments.

T1 sequence (Q96SW2 with tags, fused parts or gaps): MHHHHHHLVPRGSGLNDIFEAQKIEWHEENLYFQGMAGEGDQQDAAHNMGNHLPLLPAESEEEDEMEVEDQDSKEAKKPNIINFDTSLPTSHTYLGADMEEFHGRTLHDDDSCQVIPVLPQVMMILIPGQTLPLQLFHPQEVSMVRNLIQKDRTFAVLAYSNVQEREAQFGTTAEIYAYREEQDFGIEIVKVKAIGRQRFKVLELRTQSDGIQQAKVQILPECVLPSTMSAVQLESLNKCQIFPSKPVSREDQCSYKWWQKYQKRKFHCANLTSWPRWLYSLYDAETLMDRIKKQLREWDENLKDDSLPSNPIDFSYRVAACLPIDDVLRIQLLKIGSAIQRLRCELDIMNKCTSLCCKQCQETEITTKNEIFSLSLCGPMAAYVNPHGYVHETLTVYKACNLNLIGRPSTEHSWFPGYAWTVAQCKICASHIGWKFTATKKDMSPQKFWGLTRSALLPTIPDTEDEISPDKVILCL

Question: `O=c1ccn(-c2ccc3cn(C4CCNCC4)nc3c2)c(=O)[nH]1` [Example 131, 1-(2-(Piperidin-4-yl)-2H-indazol-6-yl)pyrimidine-2,4 (1H,3H)-dione] was tested. Which IC50 did it give?
Answer: Its IC50 is 2.13 µM.

Question: For `CN1CCN(c2c[nH]c3cc(N4CCC(=O)NC4=O)ccc23)CC1` [Example 72, 1-(3-(4-Methylpiperazin-1-yl)-1H-indol-6-yl)dihydropyrimidine-2,4 (1H,3H)-dione], which IC50 is on record?
Answer: The IC50 was 0.926 µM.

Question: With `O=C1CCN(c2ccc3ccnn3c2)C(=O)N1` [Example 3, 1-(Pyrazolo[1,5-a]pyridin-6-yl)dihydropyrimidine-2,4 (1H,3H)-dione] as the molecule, how does the IC50 read?
Answer: The IC50 was 3.28 µM.

Question: With `O=C1CCN(c2ccc3cn[nH]c3c2)C(=O)N1` [Example 42, 1-(1H-Indazol-6-yl)dihydropyrimidine-2,4 (1H,3H)-dione] as the molecule, how does the IC50 read?
Answer: The IC50 was 2.11 µM.

Question: How did the IC50 turn out when `CN1CCc2cc(N3CCC(=O)NC3=O)ccc2C1` [Example 31, 1-(2-Methyl-1,2,3,4-tetrahydroisoquinolin-6-yl)dihydropyrimidine-2,4 (1H,3H)-dione] was run?
Answer: Its IC50 is 4.1 µM.

Question: Which IC50 does the source give for `CN1CCC(n2cc3ccc(N4CCC(=O)NC4=O)cc3n2)CC1` [Example 110, 1-(2-(1-Methylpiperidin-4-yl)-2H-indazol-6-yl)dihydropyrimidine-2,4 (1H,3H)-dione] here?
Answer: The IC50 was 0.655 µM.

Question: For `CN1CCn2c(cc3ccc(N4CCC(=O)NC4=O)cc32)C1` [Example 103, 1-(2-Methyl-1,2,3,4-tetrahydropyrazino[1,2-a]indol-7-yl)dihydropyrimidine-2,4 (1H,3H)-dione], which IC50 is on record?
Answer: Its IC50 is 0.682 µM.

Question: Which IC50 does the source give for `CN1Cc2ccc(N3CCC(=O)NC3=O)cc2C1` [Example 25, 1-(2-Methylisoindolin-5-yl)dihydropyrimidine-2,4 (1H,3H)-dione] here?
Answer: The IC50 was 2.96 µM.

Question: `CN1CCC(n2ccc3cc(N4CCC(=O)NC4=O)ccc32)CC1` [Example 114, 1-(1-(1-Methylpiperidin-4-yl)-1H-indol-5-yl)dihydropyrimidine-2,4 (1H,3H)-dione] was tested. Which IC50 did it give?
Answer: The IC50 was 1.05 µM.

Question: For `O=C1CCN(c2ccc3c(c2)CNC3)C(=O)N1` [Example 24, 1-(Isoindolin-5-yl)dihydropyrimidine-2,4 (1H,3H)-dione], which IC50 is on record?
Answer: Its IC50 is 8.98 µM.

Question: `CC(=O)N1CCN(c2c[nH]c3cc(N4CCC(=O)NC4=O)ccc23)CC1` [Example 73, 1-(3-(4-Acetylpiperazin-1-yl)-1H-indol-6-yl)dihydropyrimidine-2,4 (1H,3H)-dione] was tested. Which IC50 did it give?
Answer: Its IC50 is 0.963 µM.

Question: How did the IC50 turn out when `O=C1CCN(c2ccc3c(C4CCNCC4)c[nH]c3c2)C(=O)N1` [Example 116, 1-(3-(Piperidin-4-yl)-1H-indol-6-yl)dihydropyrimidine-2,4 (1H,3H)-dione] was run?
Answer: Its IC50 is 0.368 µM.

Question: How did the IC50 turn out when `O=C1CCN(c2cccc3ncoc23)C(=O)N1` [Example 4, 1-(Benzo[d]oxazol-7-yl)dihydropyrimidine-2,4 (1H,3H)-dione] was run?
Answer: The IC50 was 3.88 µM.

Question: With `O=C1CCN(c2ccc3c(cnn3C3CCNCC3)c2)C(=O)N1` [Example 106, 1-(1-(Piperidin-4-yl)-1H-indazol-5-yl)dihydropyrimidine-2,4 (1H,3H)-dione] as the molecule, how does the IC50 read?
Answer: Its IC50 is 4.04 µM.

Question: Which IC50 does the source give for `CN1CCC(c2cn(C)c3cc(N4CCC(=O)NC4=O)ccc23)CC1` [Example 119, 1-(1-Methyl-3-(1-methylpiperidin-4-yl)-1H-indol-6-yl)dihydropyrimidine-2,4 (1H,3H)-dione] here?
Answer: Its IC50 is 1.45 µM.

Question: Which IC50 does the source give for `CN1CCC(c2nc3ccc(N4CCC(=O)NC4=O)cc3o2)CC1` [Example 97, 1-(2-(1-Methylpiperidin-4-yl)benzo[d]oxazol-6-yl)dihydropyrimidine-2,4 (1H,3H)-dione] here?
Answer: The IC50 was 2.42 µM.

Question: For `CN1CCN(c2ccc(N3CCC(=O)NC3=O)c3ccn(C)c23)CC1` [Example 126, 1-(1-Methyl-7-(4-methylpiperazin-1-yl)-1H-indol-4-yl)dihydropyrimidine-2,4 (1H,3H)-dione], which IC50 is on record?
Answer: The IC50 was 0.577 µM.

Question: For `O=C1CCN(c2cc(F)c3cc[nH]c3c2)C(=O)N1` [Example 50, 1-(4-Fluoro-1H-indol-6-yl)dihydropyrimidine-2,4 (1H,3H)-dione], which IC50 is on record?
Answer: The IC50 was 0.226 µM.

Question: How did the IC50 turn out when `O=C1CCN(c2ccc3c(c2)cc2n3CCNC2)C(=O)N1` [Example 104, 1-(1,2,3,4-Tetrahydropyrazino[1,2-a]indol-8-yl)dihydropyrimidine-2,4 (1H,3H)-dione] was run?
Answer: Its IC50 is 0.283 µM.

Question: With `CN1CCc2ccc(N3CCC(=O)NC3=O)cc21` [Example 23, 1-(1-Methylindolin-6-yl)dihydropyrimidine-2,4 (1H,3H)-dione] as the molecule, how does the IC50 read?
Answer: Its IC50 is 1.06 µM.

Question: How did the IC50 turn out when `CN1CCc2ccc(N3CCC(=O)NC3=O)cc2C1` [Example 29, 1-(2-Methyl-1,2,3,4-tetrahydroisoquinolin-7-yl)dihydropyrimidine-2,4 (1H,3H)-dione] was run?
Answer: The IC50 was 8.01 µM.

Question: How did the IC50 turn out when `O=C1CCN(c2cccc3nc(N4CCNCC4)sc23)C(=O)N1` [Example 101, 1-(2-(Piperazin-1-yl)benzo[d]thiazol-7-yl)dihydropyrimidine-2,4 (1H,3H)-dione] was run?
Answer: Its IC50 is 0.161 µM.

Question: With `O=C1CCN(c2ccc3nc(C4CCNCC4)oc3c2)C(=O)N1` [Example 96, 1-(2-(Piperidin-4-yl)benzo[d]oxazol-6-yl)dihydropyrimidine-2,4 (1H,3H1)-dione] as the molecule, how does the IC50 read?
Answer: Its IC50 is 3.74 µM.

Question: `O=C1NC(=O)N(c2ccc3cc[nH]c3c2)CC1F` (stereo not shown) [Example 45, 5-Fluoro-1-(1H-indol-6-yl)dihydropyrimidine-2,4 (1H,3H)-dione] was tested. Which IC50 did it give?
Answer: Its IC50 is 0.967 µM.

Question: For `O=C(O)Cc1c[nH]c2cc(N3CCC(=O)NC3=O)ccc12` [Example 65, 2-(6-(2,4-Dioxotetrahydropyrimidin-1 (2H)-yl)-1H-indol-3-yl)acetic acid], which IC50 is on record?
Answer: The IC50 was 0.755 µM.

Question: For `CN1Cc2ccc(N3CCC(=O)NC3=O)cc2C1=O` [Example 10, 1-(2-Methyl-3-oxoisoindolin-5-yl)dihydropyrimidine-2,4 (1H,3H)-dione], which IC50 is on record?
Answer: The IC50 was 7.88 µM.

Question: With `CC(=O)N1CCC(n2ccc3ccc(N4CCC(=O)NC4=O)cc32)CC1` [Example 122, 1-(1-(1-Acetylpiperidin-4-yl)-1H-indol-6-yl)dihydropyrimidine-2,4 (1H,3H)-dione] as the molecule, how does the IC50 read?
Answer: Its IC50 is 2.12 µM.

Question: How did the IC50 turn out when `CN1CCC(n2cc3ccc(-n4ccc(=O)[nH]c4=O)cc3n2)CC1` [Example 132, 1-(2-(1-Methylpiperidin-4-yl)-2H-indazol-6-yl)pyrimidine-2,4 (1H,3H)-dione] was run?
Answer: The IC50 was 2.16 µM.

Question: For `COc1cc(N2CCC(=O)NC2=O)cc2[nH]ccc12` [Example 52, 1-(4-Methoxy-1H-indol-6-yl)dihydropyrimidine-2,4 (1H,3H)-dione], which IC50 is on record?
Answer: The IC50 was 0.445 µM.

Question: Which IC50 does the source give for `CC(=O)N1CCN(c2noc3cc(N4CCC(=O)NC4=O)ccc23)CC1` [Example 95, 1-(3-(4-Acetylpiperazin-1-yl)benzo[d]isoxazol-6-yl)dihydropyrimidine-2,4 (1H,3H)-dione] here?
Answer: Its IC50 is 6.58 µM.

Question: How did the IC50 turn out when `O=C1CCN(c2ccc3[nH]c(=O)oc3c2)C(=O)N1` [Example 46, 1-(2-Oxo-2,3-dihydrobenzo[d]oxazol-6-yl)dihydropyrimidine-2,4 (1H,3H)-dione] was run?
Answer: Its IC50 is 3.75 µM.

Question: Which IC50 does the source give for `CN1CCN(c2nc3ccc(N4CCC(=O)NC4=O)cc3o2)CC1` [Example 99, 1-(2-(4-Methylpiperazin-1-yl)benzo[d]oxazol-6-yl)dihydropyrimidine-2,4 (1H,3H)-dione] here?
Answer: The IC50 was 4.56 µM.

Question: For `N#Cc1cc(N2CCC(=O)NC2=O)cc2[nH]ccc12` [Example 134, 6-(2,4-Dioxotetrahydropyrimidin-1 (2H)-yl)-1H-indole-4-carbonitrile], which IC50 is on record?
Answer: The IC50 was 1.66 µM.

Question: With `CN1CCC(n2ncc3cc(N4CCC(=O)NC4=O)ccc32)CC1` [Example 108, 1-(1-(1-Methylpiperidin-4-yl)-1H-indazol-5-yl)dihydropyrimidine-2,4 (1H,3H)-dione] as the molecule, how does the IC50 read?
Answer: Its IC50 is 3.81 µM.

Question: `CN1CCN(c2noc3cc(N4CCC(=O)NC4=O)ccc23)CC1` [Example 94, 1-(3-(4-Methylpiperazin-1-yl)benzo[d]isoxazol-6-yl)dihydropyrimidine-2,4 (1H,3H)-dione] was tested. Which IC50 did it give?
Answer: Its IC50 is 4.2 µM.

Question: How did the IC50 turn out when `O=C1CCN(c2ccc3c(c2)C(=O)NC3)C(=O)N1` [Example 44, 1-(3-Oxoisoindolin-5-yl)dihydropyrimidine-2,4 (1H,3H)-dione] was run?
Answer: Its IC50 is 8.47 µM.

Question: `O=C1CCN(c2cccc3[nH]ncc23)C(=O)N1` [Example 34, 1-(1H-Indazol-4-yl)dihydropyrimidine-2,4 (1H,3H)-dione] was tested. Which IC50 did it give?
Answer: The IC50 was 0.627 µM.
